A short description of the series: Dissolution of peptide acetate in a dichloromethane solution of lactic acid-glycolic acid copolymer. As to conditions: 8.0 g dichloromethane. The class given is physicochemical.

With `CCNC(=O)[C@@H]1CCCN1C(=O)[C@H](CCCNC(=N)N)NC(=O)[C@H](CC(C)C)NC(=O)[C@@H](CC(C)C)NC(=O)[C@H](Cc1ccc(O)cc1)NC(=O)[C@H](CO)NC(=O)[C@H](Cc1c[nH]c2ccccc12)NC(=O)[C@H](Cc1c[nH]cn1)NC(=O)[C@@H]1CCC(=O)N1` [Leuprorelin acetate], the “dissolution in copolymer/dichloromethane solution” value reads like this: (400 mg in 3.6 g lactic acid/glycolic acid=75/25 copolymer of Example 12 (GPC Mw 10,000, end-group Mn 4,300)) “clear homogeneous solution”; (400 mg in 3.6 g lactic acid/glycolic acid=75/25 copolymer, GPC Mw 18,000, end-group Mn 30,000 (RG752-15057)) “could not be successfully dissolved”.

The values are drawn from patent US6528093B1, “Sustained-release preparation” (Takeda Chemical Industries, Ltd., priority 1992, dated 2003).
